The text below walks through data of patent US12365687B2 (Hoffmann-La Roche Inc., priority 2021, dated 2025).

Like-named read-outs stand apart in the source and are kept apart here.

Assay [1] deals with α2β2γ1 GABAA receptor subtype (Homo sapiens (Human), UniProt P47869+Q8N1C3). Nature of the assay: Two-electrode voltage clamp electrophysiology in Xenopus oocytes expressing GABAA receptors (modulation of GABA EC20 current). In kind it is cell-based. To be noted: for Efficacy (GABA)%: % modulation of GABA EC20 = 100*(Fold increase-1), α2β2γ1 oocytes, compound at approx. 30-fold Ki; for Fold increase h-GABA-A α2β2γ1 oocyte @ 30-fold Ki: Xenopus oocytes expressing α2β2γ1, compound at approx. 30-fold its Ki α2β2γ1, GABA EC20 current. The procedure:
Xenopus laevis oocytes at maturation stages V-VI were used for the expression of cloned mRNA encoding GABAA receptor subunits. Oocytes ready for RNA micro-injection were bought from Ecocyte, Castrop-Rauxel, Germany and stored in modified Barth's medium (composition in mM: NaCl 88, KCl 1, NaHCO3 2.4, HEPES 10, MgSO4 0.82, CaNO3 0.33, CaCl2 0.33, pH=7.5) at 20° C. until the experiment.
Oocytes were plated in 96-well plates for microinjection using the Roboinject automated instrument (MultiChannelSystems, Reutlingen, Germany). Approximately 50 nL of an aqueous solution containing the RNA transcripts for the subunits of the desired GABAA receptor subtype was injected into each oocyte. […] Oocytes were kept in modified Barth's medium (composition in mM: NaCl 88, KCl 1, NaHCO3 […], HEPES 10, MgSO4 0.82, CaNO3 0.33, CaCl2 0.33, pH=7.5) at 20° C. until the experiment.
Electrophysiological experiments were performed using the Roboocyte instrument (MultiChannelSystems, Reutlingen, Germany) on days 3 to 5 after the micro-injection of mRNA. During the experiment the oocytes were constantly superfused by a solution containing (in mM) NaCl 90, KCl 1, HEPES 5, MgCl2 1, CaCl2 1 (pH 7.4). Oocytes were impaled by two glass microelectrodes (resistance: 0.5-0.8 MΩ) which were filled with a solution containing KCl 1M+K-acetate 1.5 M and voltage-clamped to −80 mV. The recordings were performed at room temperature using the Roboocyte two-electrode voltage clamp system (Multichannelsystem). After an initial equilibration period of 1.5 min GABA was added for 1.5 min at a concentration evoking approximately 20% of a maximal current response (EC20). After another rest interval of 2.5 min GABA was again added evoking a response of similar amplitude and shape. […] Current traces were recorded at a digitization rate of 10 Hz during and shortly before and after the GABA application.
Each compound and concentration was tested on at least 3 oocytes. Different oocytes were used for different compound concentrations.
For the analysis, the digitized current traces of the first and second GABA response were superimposed and, if necessary, rescaled to equal maximal amplitudes. The ratio between the two responses during the time interval of test compound application was calculated point by point. The extremum of the resulting “ratio trace” was taken as the efficacy (“Fold increase”) of the compound expressed as “% modulation of GABA EC20” (100*(Fold increase-1)).
(In general: In two-electrode clamp one electrode senses voltage and the other passes current.)

In assay [2] the target is human GABAA α2β2γ1 receptor (Homo sapiens (Human), UniProt P47869+Q8N1C3). Briefly: Radioligand binding assay for γ1-containing GABAA subtypes, [3H]RO7239181 competition (α2β2γ1). As to the method:
(§1) The affinity of compounds at GABAA γ1 subunit-containing receptors was measured by competition for [^3H]RO7239181 (67.3 Ci/mmol; Roche) binding to membranes from HEK293F cells (ThermoFisher R79007) expressing human (transiently transfected) receptors of composition α5β2γ1, α2β2γ1, α1β2γ1.
(§2) Harvested pellets from HEK293F cells expressing the different GABAA receptor subtypes were resuspended in Mannitol Buffer pH 7.2-7.4 (Mannitol 0.29 M, Triethylamine 10 mM, Acetic acid 10 mM, EDTA 1 mM plus protease inhibitors (20 tablets Complete, Roche Diagnostics Cat. No. 05 056 489 001 per liter)), washed two times and then resuspended at 1:10 to 1:15 dilution in the same buffer. Cell disruption was performed by stirring the suspension in a Parr vessel #4637 at 435 psi for 15 minutes, and then the suspensions were centrifuged at 1000×g for 15 minutes at 4° C. (Beckman Avanti J-HC; rotor JS-4.2). The supernatant (S1) was transferred in a 2 l Schott flask and the pellet (P1) was resuspended with Mannitol Buffer up to 175 ml. The resuspended pellet was transferred into a 250 ml Corning centrifugal beaker and centrifuged at 1500×g for 10 minutes at 4° C. (Beckman Avanti J-HC; rotor JS-4.2). The supernatant (S1) was then transferred in the 2 l Schott flask and the pellet was discarded. The supernatants (S1) were centrifuged in 500 ml Beckman polypropylene centrifugal beaker at 15′000×g for 30 minutes at 4° C. (Beckman Avanti J-20 XP; rotor JLA-10.500). The pellet (P2) was resuspended with Mannitol Buffer 1:1 and frozen at −80° C. The supernatant (S2) was centrifuged in 100 ml Beckman polypropylene centrifugal tubes at 48000×g for 50 minutes at 4° C. (Beckman Avanti J-20 XP; rotor JA-18). The supernatant (S3) was discarded and the pellet (P3) was resuspended with 1:1 Mannitol Buffer. The P2 and P3 protein concentration was determined with the BIORAD Standard assay method with bovine serum albumin as standard and measured on the NANO-Drop 1000. The membrane suspension was aliquots (500 μl per tube) and stored at −80° C. until required.
(§3) Membrane homogenates were resuspended and polytronised (Polytron PT1200E Kinematica AG) in Potassium Phosphate 10 mM, KCl 100 mM binding buffer at pH 7.4 to a final assay concentration determined with a previous experiment.
(§4) Assays were incubated to equilibrium for 1 hour at 4° C. and then, membranes were filtered onto unifilter (96-well white microplate with bonded GF/C filters preincubated 20-50 minutes in 0.3% Polyethylenimine) with a Filtermate 196 harvester (Packard BioScience) and washed 4 times with cold Potassium Phosphate 10 mM pH 7.4, KCl 100 mM binding buffer. After anhydrousing, filter-retained radioactivity was detected by liquid scintillation counting. Ki values were calculated using Excel-Fit (Microsoft) and are the means of two determinations.

In assay [3] the target is human GABAA α5β2γ1 receptor (Homo sapiens (Human), UniProt P31644+Q8N1C3). Nature of the assay: Radioligand binding assay for γ1-containing GABAA subtypes, [3H]RO7239181 competition (α5β2γ1). The procedure: as §1, §2, §3, §4
In assay [4] the target is human GABAA α1β3γ2 receptor (Homo sapiens (Human), UniProt P14867+P18507). Briefly: Radioligand binding assay for γ2-containing GABAA subtypes, [3H]Flumazenil competition (α1β3γ2). To be noted: for γ2/γ1 Selectivity Ratio: Ki α1β3γ2 (nM)/Ki α2β2γ1 (nM); for LogSel: Log[Ki α1β3γ2 (nM)/Ki α2β2γ1 (nM)]. The procedure:
The affinity of compounds at GABAA γ2 subunit-containing receptors was measured by competition for [^3H]Flumazenil (81.1 Ci/mmol; Roche) binding to HEK293F cells expressing human (transiently transfected) receptors of composition α1β3γ2.
Harvested pellets from HEK293F cells expressing the different GABAA γ2 receptor subtypes were resuspended in Mannitol Buffer pH 7.2-7.4 and processed as described above for the cells expressing the GABAA γ1 subunit-containing receptors.
Assays were incubated to equilibrium for 1 hour at 4° C. and harvested onto GF/C uni-filters (Packard) by filtration using a Packard harvester and washing with ice-cold wash buffer (50 mM Tris; pH 7.5). After anhydrousing, filter-retained radioactivity was detected by liquid scintillation counting. Ki values were calculated using Excel-Fit (Microsoft) and are the means of two determinations.

The mark [5] stands for this setting: Ki h-GABAA α2β2γ1, [3H]RO7239181 competition binding, human GABAA α2β2γ1.
Setting [6] is: Ki h-GABAA α2β2γ1, displacement of [3H]RO7239181, membranes of HEK293F cells expressing human receptors, means of two determinations.

Regarding `C[C@@H]1N=C(c2c(F)cccc2F)c2c(ccc(Cl)c2Cl)-n2nc(CO)nc21` [Example 13, [(4S)-7,8-dichloro-6-(2,6-difluorophenyl)-4-methyl-4H-[1,2,4]triazolo[1,5-a][1,4]benzodiazepin-2-yl]methanol], in assay [1], the “Efficacy (GABA)%” value is reported as 59% and the “Fold increase h-GABA-A α2β2γ1 oocyte @ 30-fold Ki” value came to 1.59. Moreover, the Ki (usually the equilibrium dissociation constant of an inhibitor or competing ligand from its target) in assay [2] (setting [5]) came out at 2.6 nM. The Ki in assay [2] (setting [6]) was found to be 2.58 nM. In assay [3], the Ki was found to be 0.6 nM. Also, in assay [4], the Ki came out at 368 nM, the “γ2/γ1 Selectivity Ratio” value is given as 142.7 and the LogSel is listed as 2.15.

For the molecule `C[C@@H]1N=C(c2c(F)cccc2F)c2c(ccc(Cl)c2Cl)-n2ncnc21` [Example 15, (4S)-7,8-dichloro-6-(2,6-difluorophenyl)-4-methyl-4H-[1,2,4]triazolo[1,5-a][1,4]benzodiazepine], the “Efficacy (GABA)%” value in assay [1] worked out at 62%. In addition, the “Fold increase h-GABA-A α2β2γ1 oocyte @ 30-fold Ki” value in assay [1] turned out to be 1.62. For the same molecule, the Ki in assay [2] (setting [5]) was 6 nM; in assay [2] (setting [6]) it was 6 nM; in assay [3] it was 0.4 nM; in assay [4], 278 nM. Also, the “γ2/γ1 Selectivity Ratio” value in assay [4] turned out to be 46.3. This molecule also registered a LogSel in assay [4] of 1.67.

`[2H]C([2H])([2H])OC1CN(C(=O)c2nc3n(n2)-c2ccc(Cl)c(Cl)c2C(c2c(F)cccc2F)=N[C@H]3C)C1` [Example 17, [(4S)-7,8-dichloro-6-(2,6-difluorophenyl)-4-methyl-4H-[1,2,4]triazolo[1,5-a][1,4]benzodiazepin-2-yl]-[3-(trideuteriomethoxy)azetidin-1-yl]methanone]: in assay [1], the “Efficacy (GABA)%” value is reported as 44% and the “Fold increase h-GABA-A α2β2γ1 oocyte @ 30-fold Ki” value is listed as 1.44. In assay [2] (setting [5]), this molecule registered a Ki of 2.6 nM. Affinity in assay [2] (setting [6]) was put at a Ki of 2.59 nM. In assay [3], the affinity, expressed as Ki, was 1.3 nM. In assay [4], the affinity corresponds to a Ki of 579 nM, the “γ2/γ1 Selectivity Ratio” value is given as 223.3 and the LogSel is 2.35.

As for `C[C@@H]1N=C(c2c(F)cccc2F)c2c(ccc(Cl)c2Cl)-n2nc(C(F)F)nc21` [Example 18], in assay [1], the “Efficacy (GABA)%” value is on record as 70% and the “Fold increase h-GABA-A α2β2γ1 oocyte @ 30-fold Ki” value is reported as 1.70. Besides, the affinity in assay [2] (setting [5]) corresponds to a Ki of 11.9 nM. In addition, affinity in assay [2] (setting [6]) was put at a Ki of 11.9 nM. The same molecule came in with a Ki in assay [3] of 0.69 nM. Moreover, in assay [4], the affinity corresponds to a Ki of 437 nM, the “γ2/γ1 Selectivity Ratio” value worked out at 36.8 and the LogSel worked out at 1.57.

Regarding `[2H]C([2H])([2H])N(C(=O)c1nc2n(n1)-c1ccc(Cl)c(Cl)c1C(c1c(F)cccc1F)=N[C@H]2C)C([2H])([2H])[2H]` [Example 19, (4S)-7,8-dichlor-6-(2,6-difluorophenyl)-4-methyl-N,N-bis(trideuteriomethyl)-4H-[1,2,4]triazolo[1,5-a][1,4]benzodiazepine-2-carboxamide], the “Efficacy (GABA)%” value in assay [1] is reported as 97%. Moreover, the “Fold increase h-GABA-A α2β2γ1 oocyte @ 30-fold Ki” value in assay [1] was determined as 1.97. Also, the Ki in assay [2] (Ki h-GABAA α2β2γ1, Table 3, reference compounds) amounted to 32.5 nM; in assay [2] (setting [5]), 32.5 nM; in assay [2] (setting [6]) it was 32.5 nM; in assay [3], 1.98 nM; in assay [4], 2650 nM; in assay [4] (read-out: Ki h-GABAA α1β3γ2, Table 3, reference compounds) it was 2650 nM. In addition, the “γ2/γ1 Selectivity Ratio” value in assay [4] and in assay [4] (Table 3) was 81.5 each time. Besides, the LogSel in assay [4] and in assay [4] (Table 3) was 1.91 in each case.

As to `[2H]C([2H])([2H])NC(=O)c1nc2n(n1)-c1ccc(Cl)c(Cl)c1C(c1c(F)cccc1F)=N[C@H]2C` [Example 20, (4S)-7,8-dichloro-6-(2,6-difluorophenyl)-4-methyl-N-(trideuteriomethyl)-4H-[1,2,4]triazolo[1,5-a][1,4]benzodiazepine-2-carboxamide], in assay [1], the “Efficacy (GABA)%” value is listed as 78%. Also, the “Fold increase h-GABA-A α2β2γ1 oocyte @ 30-fold Ki” value in assay [1] came to 1.78. The Ki in assay [2] (setting [5]) is 5.2 nM; in assay [2] (setting [6]), 5.24 nM; in assay [3] it was 0.89 nM; in assay [4], 593 nM. For the same molecule, the “γ2/γ1 Selectivity Ratio” value in assay [4] turned out to be 113.1. This molecule also returned a LogSel in assay [4] of 2.05.

Regarding `C[C@@H]1N=C(c2c(F)cccc2F)c2c(ccc(C(F)(F)F)c2Cl)-n2ncnc21` [Example 22, (4S)-7-chloro-6-(2,6-difluorophenyl)-4-methyl-8-(trifluoromethyl)-4H-[1,2,4]triazolo[1,5-a][1,4]benzodiazepine], in assay [1], the “Efficacy (GABA)%” value was 78% and the “Fold increase h-GABA-A α2β2γ1 oocyte @ 30-fold Ki” value is on record as 1.78. Moreover, in assay [2] (setting [5]), the affinity, expressed as Ki, was 11.4 nM. In addition, the Ki in assay [2] (setting [6]) is 11.4 nM. Also, in assay [3], the Ki was found to be 1.02 nM. Besides, in assay [4], the affinity, expressed as Ki, was 1560 nM; the “γ2/γ1 Selectivity Ratio” value is given as 136.7; the LogSel was found to be 2.14.

On to `O=C(c1nc2n(n1)-c1ccc(Cl)c(Cl)c1C(c1c(F)cccc1F)=NC2)N1CC(O)C1` [Example 24, [7,8-dichloro-6-(2,6-difluorophenyl)-4H-[1,2,4]triazolo[1,5-a][1,4]benzodiazepin-2-yl]-(3-hydroxyazetidin-1-yl)methanone], for which, in assay [1], the “Efficacy (GABA)%” value was determined as 88% and the “Fold increase h-GABA-A α2β2γ1 oocyte @ 30-fold Ki” value was 1.88. In assay [2] (setting [5]), this molecule displayed an inhibitory constant (Ki) of 3.1 nM. Further, in assay [2] (setting [6]), the Ki was determined as 3.14 nM. This molecule had a Ki in assay [3] of 0.45 nM. Also, in assay [4], the Ki is 273 nM, the “γ2/γ1 Selectivity Ratio” value was found to be 86.7 and the LogSel is recorded as 1.94.
